Measured values: paper PMC7351026, “Serum Half-Lives for Short- and Long-Chain Perfluoroalkyl Acids after Ceasing Exposure from Drinking Water Contaminated by Firefighting Foam” (Environmental Health Perspectives, 2020)

Assays:
[1] = Individual serum elimination rate and half-life (linear regression per employee); conditions: individual estimate;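 for HL (half-life): half-life in years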
Method: Serum PFAS concentrations were log-transformed. Time was calculated as the elapsed days between supply of clean bottled water and […] blood sampling. We assumed one compartment, first-order elimination kinetics. In this kinetic model, the body is considered as one homogeneous volume in which mixing is instantaneous and from which PFAS could be absorbed, transferred, and eliminated according to the rate of elimination that is proportional to the concentration of PFAS in the body. Two methods were used to estimate serum elimination rate constant (k) and half-life for each PFAS:
Method 2: For estimation of individual k, linear regression was used to derive the slope ( β ) of the logarithm of serum concentrations vs. time for each employee. The negative value of the slope ( −β ) for each individual was equivalent to the individual k, and individual serum elimination half-life was calculated as ln2/k for each PFAS. If β was positive (i.e., PFAS concentrations tended to increase over the five samplings), the half-life was not calculated.

[2] = PFAS levels in serum samples of airport employees (LC/MS/MS)
From the text: All 26 employees at the airport were invited for a blood sampling between 11 and 14 September 2018 (i.e., within 11 to 14 d after the termination of contaminated drinking-water exposure). Information on age, home address, employment history, working tasks, and sick leave and vacation days in August and September were collected by questionnaire. In addition, data on the number of glasses of water consumed per day, local fish consumption, and history of blood donation and medication were collected. For female employees, questions about menstruation, pregnancy, and duration of breast-feeding were asked.
The PFAS analysis in serum from the first sampling was immediately performed and personal results were reported to the employees. […] These 17 employees submitted four rounds of blood and first morning urine samples in parallel, at 1-month intervals. In total, there were five rounds of serum sampling (started from September) and four rounds of urine sampling (from October). For modeling of elimination, all samples were reanalyzed in a single batch. We obtained 83 serum samples with a median count of 5 (range: 4–5) samples per employee, and 59 urine samples with median of 4 (range: 1–4) samples per employee. Only one employee provided a single urine sample. The study was approved by the Regional Ethical Review Board in Lund, Sweden. All employees provided written informed consent.
Venous whole blood samples were obtained and were centrifuged for 10 min at 1,500×g at room temperature to isolate the serum on site. The serum samples were collected in 6-mL BD Vacutainer® Plus plastic serum tubes without gel (BD). Urine samples were collected in 13-mL polypropylene screw cap tubes (Sarstedt). Serum and urine samples were frozen at −20°C after sampling and transported to Lund using cold chain logistics. Serum and urine samples were stored at −80°C and −20°C , respectively, before analysis.
The serum samples, QC samples, and chemical blanks were prepared in 96-well plates with 1.5-mL flat-bottom glass vials (Biotech solutions). Serum samples were thawed for 1–2 h and mixed on a vortex shaker for approximately 10 s two times. Once after all samples were thawed and a second time before pipetting the serum to the plate. Before pipetting, the tip was pre-wetted several times, drawing a volume into the tip and dispensing it back into the tube. Sample preparation procedures for serum samples consisted of 25μL serum mixed with 25μL water, 25μL methanol, 25μL isotopically labeled internal standards in 50% acetonitrile (see Table S1), and 100μL acetonitrile. Thereafter, samples were mixed vigorous by shaking for 30 min and centrifuged at 2,600×g for 10 min at room temperature. The supernatant ( 0.2mL ) was transferred to 96-well plates with 0.5-mL conical glass vials (MicroLiter Analytical Supplies) and again centrifuged at 3,000×g for 10 min before analysis. The QC samples and chemical blanks were prepared following the same procedure as the serum samples. The calibration standards were prepared in FBS the same way as the samples, except for the addition of diluted reference standards of all analyzed compounds in 25μL of the methanol solution.
Aliquots of 4μL of the sample were analyzed using LC/MS/MS. For the analysis, a C18 column ( 4μm , 2.1mm i.d.×50mm , Genesis Lightning) was used prior to the injector to filter the mobile phases. The analytical column was an Aquity BEH ( 1.7μm , 2.1mm i.d.×100mm Waters). The mobile phases (A and B) were A: 5 mM ammonium acetate in water:methanol (50:50); and B: methanol. The mobile phase was kept at 0% B for 2.5 min after injection. A gradient was then applied over 11 min to 90% B, where it was then kept for 1.5 min. The column was then conditioned at 0% B for 2 min.

[3] = 1st sampling (September 2018), count 17
[4] = 2nd sampling (October 2018), count 17
[5] = 3rd sampling (November, 2018), count 17
[6] = 4th sampling (December 2018), count 16
[7] = 5th sampling (January 2019), count 16

Compound: O=S(=O)(O)C(F)(C(F)(F)F)C(F)(F)C(F)(F)C(F)(F)C(F)(F)C(F)(F)C(F)(F)F (stereo not drawn) [1m-PFOS, perfluoro-1-methylheptanesulfonate]
- Elimination rate ([1]; subject 1, 5 samples): 0.3 yearly
- HL (half-life) ([1]; subject 1, 5 samples): 2.0 year
- Elimination rate ([1]; subject 2, 5 samples): 0.1 yearly
- HL (half-life) ([1]; subject 2, 5 samples): 5.4 year
- Elimination rate ([1]; subject 3, 5 samples): 0.8 yearly
- HL (half-life) ([1]; subject 3, 5 samples): 0.9 year
- Elimination rate ([1]; subject 4, 5 samples): −0.1 yearly
- Elimination rate ([1]; subject 5, 5 samples): 0.1 yearly
- HL (half-life) ([1]; subject 5, 5 samples): 5.9 year
- Elimination rate ([1]; subject 6, 4 samples): −0.1 yearly
- Elimination rate ([1]; subject 7, 5 samples): −0.3 yearly
- Elimination rate ([1]; subject 8, 5 samples): −0.5 yearly
- Elimination rate ([1]; subject 9, 5 samples): −0.3 yearly
- Elimination rate ([1]; subject 10, 5 samples): 0.6 yearly
- HL (half-life) ([1]; subject 10, 5 samples): 1.2 year
- Elimination rate ([1]; subject 11, 5 samples): 1.9 yearly
- HL (half-life) ([1]; subject 11, 5 samples): 0.4 year
- Elimination rate ([1]; subject 12, 5 samples): 0.03 yearly
- Elimination rate ([1]; subject 13, 5 samples): 1.1 yearly
- HL (half-life) ([1]; subject 13, 5 samples): 0.6 year
- Elimination rate ([1]; subject 14, 4 samples): 1.7 yearly
- HL (half-life) ([1]; subject 14, 4 samples): 0.4 year
- Elimination rate ([1]; subject 15, 5 samples): 1.3 yearly
- HL (half-life) ([1]; subject 15, 5 samples): 0.6 year
- Elimination rate ([1]; subject 16, 5 samples): −0.3 yearly
- Elimination rate ([1]; subject 17, 5 samples): 2.2 yearly
- HL (half-life) ([1]; subject 17, 5 samples): 0.3 year
- Serum PFAS level, 25 percentile [2, 3]: 0.48
- Serum PFAS level, 75 percentile [2, 3]: 1.8
- Serum PFAS level, Max [2, 3]: 4.1
- Serum PFAS level, Median [2, 3]: 1.0
- Serum PFAS level, Min [2, 3]: 0.32
- Serum PFAS level, 25 percentile [2, 4]: 0.54
- Serum PFAS level, 75 percentile [2, 4]: 1.4
- Serum PFAS level, Max [2, 4]: 4.0
- Serum PFAS level, Median [2, 4]: 0.89
- Serum PFAS level, Min [2, 4]: 0.26
- Serum PFAS level, 25 percentile [2, 5]: 0.54
- Serum PFAS level, 75 percentile [2, 5]: 1.5
- Serum PFAS level, Max [2, 5]: 4.4
- Serum PFAS level, Median [2, 5]: 0.88
- Serum PFAS level, Min [2, 5]: 0.24
- Serum PFAS level, 25 percentile [2, 6]: 0.47
- Serum PFAS level, 75 percentile [2, 6]: 1.3
- Serum PFAS level, Max [2, 6]: 4.3
- Serum PFAS level, Median [2, 6]: 0.91
- Serum PFAS level, Min [2, 6]: 0.24
- Serum PFAS level, 25 percentile [2, 7]: 0.51
- Serum PFAS level, 75 percentile [2, 7]: 1.3
- Serum PFAS level, Max [2, 7]: 4.5
- Serum PFAS level, Median [2, 7]: 0.97
- Serum PFAS level, Min [2, 7]: 0.26
- PFAS in first serum sample, median (range) ([2]; employees participated in first blood sampling and repeated blood and urine sampling, N=17): 1.0 (0.32–4.1) ng/mL
- PFAS in first serum sample, median (range) ([2]; employees participated in first blood sampling only, N=9, 11-14 d after end of exposure): 0.52 (0.25–2.7) ng/mL
- Initial serum PFAS level, max ([2]; females (N=7)): 1.1 ng/mL
- Initial serum PFAS level, median ([2]; females (N=7)): 0.58 ng/mL
- Initial serum PFAS level, min ([2]; females (N=7)): 0.39 ng/mL
- Initial serum PFAS level, Max ([2]; males (N=19)): 4.1 ng/mL
- Initial serum PFAS level, Min ([2]; males (N=19)): 0.25 ng/mL
- Initial serum PFAS level, median ([2]; males (N=19)): 1.1 ng/mL
